# Measured values reported in publication PMC10046961, “High-Throughput Screening Assay for Detecting Drug-Induced Changes in Synchronized Neuronal Oscillations and Potential Seizure Risk Based on Ca^2+ Fluorescence Measurements in Human Induced Pluripotent Stem Cell (hiPSC)-Derived Neuronal 2D and 3D Cultures” (Cells, 2023).
# Like-named read-outs stand apart in the source and are kept apart here. Marks after values point to notes of the source that are not given here.
# Legend:
# [1] = system: hiPSC-derived neurons co-cultured with human primary astrocytes in 3D; experiment: Ca2+ transient oscillation assay (FDSS), 3D spheroids; assay type: cell-based; settings: 60 min
# Outline: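 Fura-2 fluorescence was read twice for 20 min each: a baseline 10 min after 0.04% DMSO, and again 60 min after compound addition at nominal final concentration. The 3D co-cultures (1:1 hiPSC neurons from a donor and human astrocytes, 8000 each) matured 5 weeks in BrainPhys medium after a 1-week differentiation.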
# [2] = system: hiPSC-derived neurons co-cultured with human primary astrocytes in 2D; experiment: Ca2+ transient oscillation assay (FDSS), 2D co-culture; assay type: cell-based; settings: for activation at 11.11 µM / activation at 33.33 µM / activation at 100 µM / activation at 300 µM / activation at 3.7 µM / activation at 0.11 µM / activation at 0.33 µM / activation at 1 µM / activation at 3 µM: Homo sapiens, 1 h, 60 min
# Outline: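 hiPSC-derived excitatory neurons (CW50065, Quick-Neuron EX-SeV) co-cultured with human primary astrocytes at 4:1 (10,000:2500 cells per well). Cal-520-loaded cells in HBSS with 2 mM CaCl2 and 10 mM HEPES were pretreated with 0.04% DMSO.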
# [3] = ref PharmaPendium, cited from earlier work
# [4] = read-out: Area under the curve - 2D Mean
# [5] = read-out: Peak amplitude - 2D Mean
# [6] = read-out: Peak-to-peak interval - 2D Mean
# [7] = Table 1, peak plasma concentration in men, free therapeutic Cmax
# [8] = Table 2, highest plasma concentration in humans after the therapeutic dose
structure (smiles),measurement,setting,value
Cn1c(=O)c2[nH]cnc2n(C)c1=O [Theophylline],Area under the curve - 3D Mean,[1]; 11.11 µM,156.1 % change from baseline
same,Peak Number—3D Mean,[1]; 11.11 µM,2.0 % change from baseline
same,Peak amplitude - 3D Mean,[1]; 11.11 µM,121.2 % change from baseline
same,Peak width - 3D Mean,[1]; 11.11 µM,11.1 % change from baseline
same,Peak-to-peak interval - 3D Mean,[1]; 11.11 µM,−4.0 % change from baseline
same,Area under the curve - 3D Mean,[1]; 33.33 µM,171.1 % change from baseline
same,Peak Number—3D Mean,[1]; 33.33 µM,53.5 * % change from baseline
same,Peak amplitude - 3D Mean,[1]; 33.33 µM,142.1 % change from baseline
same,Peak width - 3D Mean,[1]; 33.33 µM,12.2 % change from baseline
same,Peak-to-peak interval - 3D Mean,[1]; 33.33 µM,−21.2 % change from baseline
same,Area under the curve - 3D Mean,[1]; 100 µM,148.8 % change from baseline
same,Peak Number—3D Mean,[1]; 100 µM,78.1 * % change from baseline
same,Peak amplitude - 3D Mean,[1]; 100 µM,99.6 % change from baseline
same,Peak width - 3D Mean,[1]; 100 µM,21.3 % change from baseline
same,Peak-to-peak interval - 3D Mean,[1]; 100 µM,−37.1 % change from baseline
same,Area under the curve - 3D Mean,[1]; 300 µM,134.2 % change from baseline
same,Peak Number—3D Mean,[1]; 300 µM,114.2 * % change from baseline
same,Peak amplitude - 3D Mean,[1]; 300 µM,89.4 % change from baseline
same,Peak width - 3D Mean,[1]; 300 µM,29.3 % change from baseline
same,Peak-to-peak interval - 3D Mean,[1]; 300 µM,−45.7 % change from baseline
same,"effect on peak number / Ca2+ neuronal oscillations, in words",[2]; 2D format,significantly increased peak number
same,activation at 11.11 µM,[2]; [4],32.3%
same,activation at 11.11 µM,[2]; read-out: Peak Number—2D Mean,-5.7%
same,activation at 11.11 µM,[2]; [5],12.7%
same,activation at 11.11 µM,[2]; read-out: Peak width - 2D Mean,22.8%
same,activation at 11.11 µM,[2]; [6],24.3%
same,activation at 33.33 µM,[2]; [4],41.7%
same,activation at 33.33 µM,[2]; read-out: Peak Number—2D Mean,24.7%
same,activation at 33.33 µM,[2]; [5],15.3%
same,activation at 33.33 µM,[2]; read-out: Peak width - 2D Mean,31.2%
same,activation at 33.33 µM,[2]; [6],-5.2%
same,activation at 100 µM,[2]; [4],29.7%
same,activation at 100 µM,[2]; read-out: Peak Number—2D Mean,39.3%
same,activation at 100 µM,[2]; [5],10%
same,activation at 100 µM,[2]; read-out: Peak width - 2D Mean,24.3%
same,activation at 100 µM,[2]; [6],-26.3%
same,activation at 300 µM,[2]; [4],72.8%
same,activation at 300 µM,[2]; read-out: Peak Number—2D Mean,118%
same,activation at 300 µM,[2]; [5],6%
same,activation at 300 µM,[2]; read-out: Peak width - 2D Mean,113%
same,activation at 300 µM,[2]; [6],-46.8%
same,Free Cmax,[3]; [7],8 to 15 µM
same,Free Cmax,[3]; [8],8 to 15 µM
NC(=O)N1c2ccccc2C=Cc2ccccc21 [Carbamazepine],Area under the curve - 3D Mean,[1]; 3.7 µM,122.1 % change from baseline
same,Peak Number—3D Mean,[1]; 3.7 µM,11.4 % change from baseline
same,Peak amplitude - 3D Mean,[1]; 3.7 µM,114.1 % change from baseline
same,Peak width - 3D Mean,[1]; 3.7 µM,2.9 % change from baseline
same,Peak-to-peak interval - 3D Mean,[1]; 3.7 µM,−4.9 % change from baseline
same,Area under the curve - 3D Mean,[1]; 11.11 µM,121.7 % change from baseline
same,Peak Number—3D Mean,[1]; 11.11 µM,3.9 % change from baseline
same,Peak amplitude - 3D Mean,[1]; 11.11 µM,114.1 % change from baseline
same,Peak width - 3D Mean,[1]; 11.11 µM,2.8 % change from baseline
same,Peak-to-peak interval - 3D Mean,[1]; 11.11 µM,9.5 % change from baseline
same,Area under the curve - 3D Mean,[1]; 33.33 µM,107.4 % change from baseline
same,Peak Number—3D Mean,[1]; 33.33 µM,−19.3 % change from baseline
same,Peak amplitude - 3D Mean,[1]; 33.33 µM,93.5 % change from baseline
same,Peak width - 3D Mean,[1]; 33.33 µM,5.1 % change from baseline
same,Peak-to-peak interval - 3D Mean,[1]; 33.33 µM,33.5 % change from baseline
same,Area under the curve - 3D Mean,[1]; 100 µM,173.0 % change from baseline
same,Peak Number—3D Mean,[1]; 100 µM,−21.5 % change from baseline
same,Peak amplitude - 3D Mean,[1]; 100 µM,85.2 % change from baseline
same,Peak width - 3D Mean,[1]; 100 µM,43.8 % change from baseline
same,Peak-to-peak interval - 3D Mean,[1]; 100 µM,25.1 % change from baseline
same,activation at 3.7 µM,[2]; [4],31.5%
same,activation at 3.7 µM,[2]; read-out: Peak Number—2D Mean,-15.3%
same,activation at 3.7 µM,[2]; [5],16.5%
same,activation at 3.7 µM,[2]; read-out: Peak width - 2D Mean,19%
same,activation at 3.7 µM,[2]; [6],0.8%
same,activation at 11.11 µM,[2]; [4],62%
same,activation at 11.11 µM,[2]; read-out: Peak Number—2D Mean,-17%
same,activation at 11.11 µM,[2]; [5],8.5%
same,activation at 11.11 µM,[2]; read-out: Peak width - 2D Mean,66.5%
same,activation at 11.11 µM,[2]; [6],45.8%
same,activation at 33.33 µM,[2]; [4],-39.7%
same,activation at 33.33 µM,[2]; read-out: Peak Number—2D Mean,-76.8%
same,activation at 33.33 µM,[2]; [5],-52%
same,activation at 33.33 µM,[2]; read-out: Peak width - 2D Mean,-36.7%
same,activation at 33.33 µM,[2]; [6],45%
same,activation at 100 µM,[2]; [4],-100%
same,activation at 100 µM,[2]; read-out: Peak Number—2D Mean,-100%
same,activation at 100 µM,[2]; [5],-100%
same,activation at 100 µM,[2]; read-out: Peak width - 2D Mean,-100%
same,activation at 100 µM,[2]; [6],-100%
same,Free Cmax,[3]; [7],10 µM
same,Free Cmax,[3]; [8],10 µM
CC1(C)S[C@@H]2[C@H](NC(=O)[C@H](N)c3ccc(O)cc3)C(=O)N2[C@H]1C(=O)O [Amoxicillin],Area under the curve - 3D Mean,[1]; 0.11 µM,147.7 % change from baseline
same,Peak Number—3D Mean,[1]; 0.11 µM,−8.0 % change from baseline
same,Peak amplitude - 3D Mean,[1]; 0.11 µM,136.9 % change from baseline
same,Peak width - 3D Mean,[1]; 0.11 µM,4.7 % change from baseline
same,Peak-to-peak interval - 3D Mean,[1]; 0.11 µM,12.1 % change from baseline
same,Area under the curve - 3D Mean,[1]; 0.33 µM,145.7 % change from baseline
same,Peak Number—3D Mean,[1]; 0.33 µM,1.4 % change from baseline
same,Peak amplitude - 3D Mean,[1]; 0.33 µM,132.0 % change from baseline
same,Peak width - 3D Mean,[1]; 0.33 µM,5.5 % change from baseline
same,Peak-to-peak interval - 3D Mean,[1]; 0.33 µM,9.0 % change from baseline
same,Area under the curve - 3D Mean,[1]; 1 µM,122.0 % change from baseline
same,Peak Number—3D Mean,[1]; 1 µM,9.3 % change from baseline
same,Peak amplitude - 3D Mean,[1]; 1 µM,130.1 % change from baseline
same,Peak width - 3D Mean,[1]; 1 µM,−4.5 % change from baseline
same,Peak-to-peak interval - 3D Mean,[1]; 1 µM,−5.5 % change from baseline
same,Area under the curve - 3D Mean,[1]; 3 µM,125.7 % change from baseline
same,Peak Number—3D Mean,[1]; 3 µM,18.3 % change from baseline
same,Peak amplitude - 3D Mean,[1]; 3 µM,123.5 % change from baseline
same,Peak width - 3D Mean,[1]; 3 µM,1.2 % change from baseline
same,Peak-to-peak interval - 3D Mean,[1]; 3 µM,−1.2 % change from baseline
same,activation at 0.11 µM,[2]; [4],38.3%
same,activation at 0.11 µM,[2]; read-out: Peak Number—2D Mean,-10.5%
same,activation at 0.11 µM,[2]; [5],19.3%
same,activation at 0.11 µM,[2]; read-out: Peak width - 2D Mean,22.3%
same,activation at 0.11 µM,[2]; [6],27.3%
same,activation at 0.33 µM,[2]; [4],23.7%
same,activation at 0.33 µM,[2]; read-out: Peak Number—2D Mean,8.3%
same,activation at 0.33 µM,[2]; [5],5%
same,activation at 0.33 µM,[2]; read-out: Peak width - 2D Mean,25.7%
same,activation at 0.33 µM,[2]; [6],9.3%
same,activation at 1 µM,[2]; [4],45.8%
same,activation at 1 µM,[2]; read-out: Peak Number—2D Mean,27.2%
same,activation at 1 µM,[2]; [5],8.3%
same,activation at 1 µM,[2]; read-out: Peak width - 2D Mean,48%
same,activation at 1 µM,[2]; [6],-16%
same,activation at 3 µM,[2]; [4],43%
same,activation at 3 µM,[2]; read-out: Peak Number—2D Mean,16.2%
same,activation at 3 µM,[2]; [5],7.5%
same,activation at 3 µM,[2]; read-out: Peak width - 2D Mean,47.7%
same,activation at 3 µM,[2]; [6],-7.8%
same,Free Cmax,[3]; [7],0.003 to 32 µM
